Row | melting point | SMILES
1 | 62 °C | COc1ccc(Oc2cc(-n3c(=O)cc(C(F)(F)F)n(C)c3=O)c(F)cc2C#N)cc1 [Example 2, 4-(3,6-dihydro-2,6-dioxo-3-methyl-4-trifluoro-methyl-1(2H)-pyrimidin-1-yl)-5-fluoro-2-(4-methoxy-phenoxy)-benzonitrile]
2 | 84 °C | COc1ccc(Oc2cc(-n3c(=O)cc(C(F)(F)F)[nH]c3=O)c(F)cc2C#N)cc1 [Example 1, 4-(3,6-dihydro-2,6-dioxo-4-trifluoromethyl-1(2H)-pyrimidin-1-yl)-5-fluoro-2-(4-methoxy-phenoxy)-benzonitrile]
